# Test results taken from patent US20240059753A1, “COMPOSITIONS INCLUDING MULTI-AGONIST PEPTIDES AND METHODS OF MANUFACTURE AND USE” (Pep2Tango Therapeutics Inc., priority 2022, published 2024).
# Counter-ions that a name gives are not always drawn.
# Tests used:
# [1] = target: T1, Human Calc/RAMP3R (AMY3) (Homo sapiens, UniProt O60896+P30988); assay: GPCR cell-based cAMP assay, human AMY3 receptor; details: stably transfected CHO-Kl cells, 0.1% casein
# T1 construct: expressed in transfected cells; host or cells: CHO-K1, stably transfected
# T1 sequence (P30988 25-474): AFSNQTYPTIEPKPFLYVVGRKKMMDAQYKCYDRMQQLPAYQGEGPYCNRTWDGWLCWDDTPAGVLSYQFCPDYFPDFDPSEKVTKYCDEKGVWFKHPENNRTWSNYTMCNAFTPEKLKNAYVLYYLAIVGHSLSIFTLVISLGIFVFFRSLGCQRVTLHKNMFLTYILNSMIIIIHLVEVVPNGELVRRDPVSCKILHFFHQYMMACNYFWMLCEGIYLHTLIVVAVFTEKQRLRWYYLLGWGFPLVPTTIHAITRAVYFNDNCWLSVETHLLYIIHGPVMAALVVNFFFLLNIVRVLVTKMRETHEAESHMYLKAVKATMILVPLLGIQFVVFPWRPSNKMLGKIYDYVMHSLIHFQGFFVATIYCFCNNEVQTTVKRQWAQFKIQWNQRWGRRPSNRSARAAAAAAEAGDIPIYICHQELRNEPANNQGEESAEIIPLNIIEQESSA
# T1 sequence (O60896 24-148 partner): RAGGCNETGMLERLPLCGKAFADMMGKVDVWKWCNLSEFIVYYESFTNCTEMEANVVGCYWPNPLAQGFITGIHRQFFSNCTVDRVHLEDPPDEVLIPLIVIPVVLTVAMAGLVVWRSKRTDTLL
# Experimental: (§1) Experimental protocol: Cells were seeded in a total volume of 20 μL into white walled, 384-well microplates and incubated at 37° C. overnight prior to testing. Prior to testing cell plating media was exchanged with 10 μL of Assay buffer (HBSS+10 mM HEPES). All compounds were run in assay buffer containing 0.1% casein. Briefly, intermediate dilution of sample stocks was performed to generate 4× sample in assay buffer. 5 μL of 4× sample was added to cells and incubated at 37° C. for 30 minutes. Final assay vehicle concentration was 1%. […] Microplates were read following signal generation with PerkinElmer Envision instrument for chemiluminescent signal detection.
# (§2) The results are expressed as a percent efficacy relative to the maximum response of the control ligand.
# [2] = target: T2, Human GIPR (Homo sapiens, UniProt P48546); assay: GPCR cell-based cAMP assay, human GIP receptor; details: stably transfected CHO-Kl cells, 0.1% casein
# T2 construct: expressed in transfected cells; host or cells: CHO-K1, stably transfected
# T2 sequence (P48546 22-466): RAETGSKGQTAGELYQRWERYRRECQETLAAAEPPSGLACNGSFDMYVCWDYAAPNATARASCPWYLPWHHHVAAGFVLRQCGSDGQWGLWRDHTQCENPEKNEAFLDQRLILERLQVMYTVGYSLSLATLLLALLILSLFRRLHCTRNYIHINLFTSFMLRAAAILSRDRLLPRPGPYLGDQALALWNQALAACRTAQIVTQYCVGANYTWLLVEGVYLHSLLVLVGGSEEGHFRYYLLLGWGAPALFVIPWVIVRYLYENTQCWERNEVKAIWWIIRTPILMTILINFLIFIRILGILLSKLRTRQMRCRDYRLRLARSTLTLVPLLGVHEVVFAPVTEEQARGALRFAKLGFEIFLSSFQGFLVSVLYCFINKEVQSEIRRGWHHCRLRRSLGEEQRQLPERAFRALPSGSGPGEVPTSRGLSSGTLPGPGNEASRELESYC
# Experimental: as §1, §2
# [3] = target: Human GLP-1R (Homo sapiens, UniProt P43220); assay: GPCR cell-based cAMP assay, human GLP-1 receptor; parameters: expressed in transfected cells; host or cells: CHO-K1, stably transfected; details: stably transfected CHO-Kl cells, 0.1% casein
# Experimental: as §1, §2
# [4] = test system: lean mice; assay: Acute food intake in lean mice after single s.c. administration; type: in vivo, C57BL/6j male mice; details: mean ± SEM
# Experimental: (§3) Differences were considered statistically significant at p<0.05. Data analysis was carried out with GraphPad software (GraphPad Prism).
# [5] = test system: lean rats; assay: Acute food intake and body weight reduction in lean rats; type: in vivo, Sprague Dawley male rats; details: single s.c. 10 nmol/Kg, mean ± SEM
# Experimental: Food intake was measured at different time-intervals post-injection up to 72 h using a precision balance. Cumulative food intake was calculated for the indicated time-periods. Body weight was measured at the indicated time-periods. Mean of cumulative food intake in each dose group was compared to vehicle and reported as a percentage of mean reduction relative to vehicle.
# All data shown are the mean±standard error (SEM).
# [6] = target: T3, Human CalcitoninR (Homo sapiens, UniProt P30988); assay: GPCR cell-based cAMP assay, human calcitonin receptor; details: stably transfected CHO-Kl cells, 0.1% casein
# T3 construct: expressed in transfected cells; host or cells: CHO-K1, stably transfected
# T3 sequence (P30988 25-474): T1 sequence (P30988 25-474)
# Experimental: as §1, §2
# [7] = test system: DIO mice; assay: Food intake and body weight after repeated dosing in DIO mice; type: in vivo, C57BL/6j male mice; details: daily injection 10 nmol/kg for 20 days
# Experimental: as §3
# [8] = test system: 4 h fasted mice; assay: Blood glucose after single administration of peptides; type: in vivo; details: 4 h fasted mice, single s.c. 10 nmol/Kg, mean ± SEM
# Experimental: as §3
# Human GLP-1R, sequence (P43220 24-463): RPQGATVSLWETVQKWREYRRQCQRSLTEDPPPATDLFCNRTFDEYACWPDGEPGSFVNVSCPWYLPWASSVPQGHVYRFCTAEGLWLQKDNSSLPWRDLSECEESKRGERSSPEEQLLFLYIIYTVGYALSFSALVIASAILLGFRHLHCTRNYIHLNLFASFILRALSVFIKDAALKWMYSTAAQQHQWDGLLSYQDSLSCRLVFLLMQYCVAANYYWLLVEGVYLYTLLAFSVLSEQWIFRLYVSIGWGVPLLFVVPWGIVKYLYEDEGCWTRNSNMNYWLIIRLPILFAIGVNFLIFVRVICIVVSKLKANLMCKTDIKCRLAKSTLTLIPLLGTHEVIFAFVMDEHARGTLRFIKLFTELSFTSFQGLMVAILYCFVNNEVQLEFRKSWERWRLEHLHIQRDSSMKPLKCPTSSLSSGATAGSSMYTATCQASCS
structure (smiles),measurement,setting,value
"CC[C@H](C)[C@H](NC(=O)[C@H](CC(C)C)NC(=O)[C@H](Cc1c[nH]c2ccccc12)NC(=O)[C@H](CCC(N)=O)NC(=O)[C@@H](NC(=O)[C@H](Cc1ccccc1)NC(=O)[C@H](C)NC(=O)[C@H](CCC(N)=O)NC(=O)[C@H](CCC(N)=O)NC(=O)[C@H](C)NC(=O)[C@@H](NC(=O)[C@H](CCCCN)NC(=O)[C@H](CC(=O)O)NC(=O)[C@H](CC(C)C)NC(=O)C(C)(C)NC(=O)[C@@H](NC(=O)[C@H](CO)NC(=O)[C@H](Cc1ccc(O)cc1)NC(=O)[C@H](CC(=O)O)NC(=O)[C@H](CO)NC(=O)[C@@H](NC(=O)[C@H](Cc1ccccc1)NC(=O)[C@@H](NC(=O)CNC(=O)[C@H](CCC(=O)O)NC(=O)C(C)(C)NC(=O)[C@@H](N)Cc1ccc(O)cc1)[C@@H](C)O)[C@@H](C)O)[C@@H](C)CC)[C@@H](C)CC)C(C)C)C(=O)N[C@@H](C)C(=O)NCC(=O)NCC(=O)N1CCC[C@H]1C(=O)N[C@@H](CO)C(=O)N[C@@H](CCCCN)C(=O)N[C@H]1CSSC[C@@H](C(=O)N[C@H](C(=O)N[C@@H](CC(C)C)C(=O)NCC(=O)N[C@@H](CCCNC(=N)N)C(=O)N[C@@H](CC(C)C)C(=O)N[C@@H](CO)C(=O)N[C@@H](CCC(N)=O)C(=O)N[C@@H](CCC(=O)O)C(=O)N[C@@H](CC(C)C)C(=O)N[C@@H](Cc2c[nH]cn2)C(=O)N[C@@H](CCCNC(=N)N)C(=O)N[C@@H](CC(C)C)C(=O)N[C@@H](CCC(N)=O)C(=O)N[C@H](C(=O)N[C@@H](Cc2ccc(O)cc2)C(=O)N2CCC[C@H]2C(=O)N[C@@H](CCCNC(=N)N)C(=O)N[C@H](C(=O)N[C@@H](CC(N)=O)C(=O)N[C@H](C(=O)NCC(=O)N[C@@H](CCCCNC(=O)COCCOCCNC(=O)COCCOCCNC(=O)CC[C@H](NC(=O)CCCCCCCCCCCCCCCCC(=O)O)C(=O)O)C(=O)N[C@@H](CC(N)=O)C(=O)N[C@H](C(=O)N[C@@H](Cc2ccc(O)cc2)C(N)=O)[C@@H](C)O)[C@@H](C)O)[C@@H](C)O)[C@@H](C)O)C(C)C)NC(=O)[C@H]([C@@H](C)O)NC(=O)[C@H](C)NC(=O)[C@H]([C@@H](C)O)NC(=O)[C@H](CC(N)=O)NC1=O [SEQ ID NO. 47, Y-Aib-E-G-T-F-T-S-D-Y-S-I-Aib-LDKIAQQAFVQWLIAGGPSKCNTATCVLGRLSQELHRLQTYPRTNTGK*-N-T-Y-NH2-acetate salt (wherein K* = Lys(AEEAc-AEEAc-γ-Glu-17-carboxyheptadecanoyl))]",EC50,[1],0.353 nM
same,EC50,[2],0.121 nM
same,EC50,[3],0.438 nM
same,Cumulative food intake reduction relative to vehicle,"[4]; Table 12, 10 nmol/Kg, 8 H",64.7 ± 2.16 %
same,Cumulative food intake reduction relative to vehicle,"[4]; Table 12, 10 nmol/Kg, 24 H",65.4 ± 1.53 %
same,Cumulative food intake reduction relative to vehicle,"[4]; Table 12, 10 nmol/Kg, 48 H",42.3 ± 1.61 %
same,Cumulative food intake reduction relative to vehicle,"[4]; Table 12, 10 nmol/Kg, 72 H",26.0 ± 2.27 %
same,Cumulative food intake reduction relative to vehicle,"[4]; Table 13, 10 nmol/Kg, 8 H",62.5 ± 2.81 %
same,Cumulative food intake reduction relative to vehicle,"[4]; Table 13, 10 nmol/Kg, 24 H",49.0 ± 5.24 %
same,Cumulative food intake reduction relative to vehicle,"[4]; Table 13, 10 nmol/Kg, 48 H",28.0 ± 3.62 %
same,Cumulative food intake reduction relative to vehicle,"[4]; Table 13, 10 nmol/Kg, 72 H",14.8 ± 2.78 %
same,Cumulative food intake reduction relative to vehicle,"[4]; Table 13, 30 nmol/Kg, 8 H",83.6 ± 2.44 %
same,Cumulative food intake reduction relative to vehicle,"[4]; Table 13, 30 nmol/Kg, 24 H",64.5 ± 4.61 %
same,Cumulative food intake reduction relative to vehicle,"[4]; Table 13, 30 nmol/Kg, 48 H",36.7 ± 2.82 %
same,Cumulative food intake reduction relative to vehicle,"[4]; Table 13, 30 nmol/Kg, 72 H",25.2 ± 2.60 %
same,Cumulative food intake reduction vs vehicle,[5]; 4 H,14.0 ± 7.72%
same,Cumulative food intake reduction vs vehicle,[5]; 12 H,40.6 ± 4.52 %
same,Cumulative food intake reduction vs vehicle,[5]; 24 H,40.8 ± 4.23 %
same,Cumulative food intake reduction vs vehicle,[5]; 48 H,30.1 ± 3.03 %
same,Cumulative food intake reduction vs vehicle,[5]; 72 H,14.3 ± 2.53 %
same,Food intake reduction by intervals vs vehicle,[5]; interval 0-4 H,14.0 ± 7.72%
same,Food intake reduction by intervals vs vehicle,[5]; interval 4-12 H,48.7 ± 5.41 %
same,Food intake reduction by intervals vs vehicle,[5]; interval 12-24 H,42.9 ± 9.15 %
same,Food intake reduction by intervals vs vehicle,[5]; interval 24-48 H,19.3 ± 2.41 %
same,Food intake reduction by intervals vs vehicle,[5]; interval 48-72 H,−23.3 ± 4.52 %
same,EC50,[6],0.185 nM
same,Effect on fasting insulin,"[7]; 4 h fasted, FIG. 5",reduced
same,Effect on fasting serum glucose,"[7]; 4 h fasted, FIG. 5",reduced
same,Effect on food intake in DIO mice,[7]; FIG. 2,reduce
same,Effect on body weight in DIO mice,[7]; FIG. 3,reduce
same,"Effect on fat mass, assessed by MRI",[7]; FIG. 4,reduction of fat mass
same,"Blood glucose, 120 min",[8]; 120 min after injection,102.2 ± 4.08 mg/dL
same,"Blood glucose, 240 min",[8]; 240 min after injection,77.0 ± 3.75 mg/dL
same,"Blood glucose, Time 0",[8]; Time 0 (baseline),174.7 ± 3.62 mg/dL
